Data set [1] has as its system LPS-induced pulmonary neutrophilia and emesis in the conscious ferret. The data set can be described thus: In vivo Assay 4: therapeutic index of orally-administered PDE4 inhibitors in the conscious ferret. The procedure:
In vivo Assay 4. Evaluation of Therapeutic Index of Orally-administered PDE 4 Inhibitors in the Conscious Ferret
PDE4 inhibitors are prepared for oral p.o.) administration by dissolving in a fixed volume (1 ml) of acetone and then adding cremophor to 20% of the final volume. Acetone is evaporated by directing a flow of nitrogen gas onto the solution. Once the acetone is removed, the solution is made up to final volume with distilled water. LPS is dissolved in phosphate buffered saline.
Male ferrets (Mustela Pulorius Furo, weighing 1-2 kg) are transported and allowed to acclimatise for not less than 7 days. The diet comprises SDS diet C pelleted food given ad lib with Whiskers™ cat food given 3 times per week. The animals are supplied with pasteurised animal grade drinking water changed daily.
PDE4 inhibitors are administered orally (p.o.), using a dose volume of 1 ml/kg.
Ferrets are fasted overnight but allowed free access to water. The animals are orally dosed with vehicle or PDE 4 inhibitor using a 15 cm dosing needle that is passed down the back of the throat into the oesophagus. After dosing, the animals are returned to holding cages fitted with perspex doors to allow observation, and given free access to water. The animals are constantly observed and any emetic episodes (retching and vomiting) or behavioural changes are recorded. […]
Thirty minutes after oral dosing with compound or vehicle control, the ferrets are placed into sealed perspex containers and exposed to an aerosol of LPS (30 μg/ml) for 10 minutes. […] All emetic episodes and behavioural changes are recorded.
Six hours after LPS exposure the animals are killed by overdose of sodium pentobarbitone administered intraperitoneally. […] From this, the total number of neutrophils in the BAL sample is determined. […]
b) Emetic episodes—the number of vomits and retches are counted to determine the dose of PDE4 inhibitor that gives a 20% incidence of emesis (D20).
c) A therapeutic index (TI), using this assay, is then calculated for each PDE4 inhibitor using the following equation: […]

Data set [2] concerns microfilaricidal activity. The note with it: cited from earlier work.

With `O=C(Nc1c(Cl)cncc1Cl)c1ccc(OC(F)F)c(OCC2CC2)c1` [roflumilast], the “Ferret TI” value in data set [1] (D20/D50, p.o.) amounted to 1.1. In data set [1] (ferret, p.o., dose giving 20% incidence of emesis), this compound had a D20 for emesis of 0.46 mg/kg. The “D50 for ferret neutrophilia” value in data set [1] (ferret, p.o., dose giving 50% inhibition of LPS-induced pulmonary neutrophilia) stood at 0.42 mg/kg. For the compound `Oc1c(C2=NCCc3ccccc32)cnc2c1c(-c1ccccc1)nn2-c1ccccc1` [4-hydroxy-1,3-diphenyl-5-(3′,4′-dihydroisoquinol-1′-yl)-pyrazolo[3,4-b]pyridine, reference compound], in data set [2], the microfilaricidal activity result was “no significant microfilaricidal activity”. As for `CC1Cc2ccccc2C(c2cnc3c(c(-c4ccccc4)nn3-c3ccccc3)c2O)=N1` (centres unmarked), the microfilaricidal activity entry in data set [2] was “no significant microfilaricidal activity”.

The record behind these values is patent publication US7528148B2, “Pyrazolo[3,4-B]pyridine compounds, and their use as phosphodiesterase inhibitors” (Glaxo Group Limited, priority 2002, dated 2009).
